Data: patent US9217014B2, “Antifungal agents and uses thereof” (Cidara Therapeutics, Inc., priority 2011, dated 2015)
Where two headings read alike, the source gives them in different places.

Assays:
C. albicans R303 = assay: mouse candidiasis infection model, IP administration, kidney fungal burden; format: in vivo; details: for log reduction at 0.5 mg/kg / log reduction at 1.5 mg/kg / log reduction at 4.5 mg/kg: Candida albicans, R303, ip, 24 h, read-out: Difference from 24-h control; for Mean log10 CFU/kidneys (±SEM): kidneys 24 h after infection; for overall performance in reducing C. albicans CFUs in the kidneys of the mice: conclusion over all runs
Procedure: The objective of these studies was to evaluate the efficacy of test compounds in the mouse candidiasis infection model. Amounts of test articles are uncorrected.
The strain, C. albicans R303 was transferred from frozen storage onto Sabauroud dextrose agar (SDA) plates and grown for ˜24 hr at 35° C. The inoculum was prepared by transferring colonies from the plate to phosphate buffered saline (PBS) and the concentration adjusted to approximately 10^6 CFU/mL with the aid of a spectrophotometer. The stock was diluted 1:9 to prepare the inoculum. Prior to each run the concentration was verified using the dilution plate count method.
Female CD-1 mice were used in this study. The animals were approximately seven-weeks-old at the start of the study and weighed about 15-30 g.
Mice were made neutropenic with IP injections of cyclophosphamide (150 mg/kg in 10 mL/kg) at 4 and 1 day before inoculation. Each animal was inoculated with the appropriate concentration by injecting 0.1 mL of inoculum into a tail vein. The test compounds were administered IP at 2 hr after infection.
In a typical procedure, the kidneys were collected from four mice in control group 1 (untreated) at 2 hr after infection, and from another four mice in control group 2 (untreated) at 24 hr after infection. Kidneys were removed aseptically from each mouse and were combined in a sterile tube. An aliquot (2 mL) of sterile PBS was added to each tube and the contents homogenized with a tissue homogenizer (Polytron 3100). Serial dilutions of the tissue homogenates were conducted and 0.1 mL aliquots were spread on SDA plates and the plates incubated at 35° C. overnight. The CFU/kidneys were determined from colony counts. Data were analyzed using one-way ANOVA with either the Tukey-Kramer Multiple Comparisons Test or Dunnett Test (GraphPad InStat version 3.06, GraphPad Software, San Diego, Calif.).
The data reported below are the average of four mice. Each run included a separate control and each is tabulated separately.

[1] = Pharmacokinetics in beagle dogs, intravenous; format: in vivo; details: for Vd / half-life: dog
Procedure: The test articles were administered to beagle dogs weighing approximately 6-10 kg. Each test article was dosed at 1.4 mg/kg in aqueous saline (with or without 0.5% Tween) over course of 1-10 minutes. […] The dogs were fasted at least 12 hours prior to each dosing and offered food after the 4-hour blood sample was taken; water was withheld for 1 hour prior to and 4 hours following each dosing event. The dose for each animal was based on its most recent body weight. The test article was injected intravenously via a catheter placed in the cephalic vein as a slow bolus.
Blood was collected via the jugular vein. All blood samples (˜1 mL each) were collected into K3EDTA tubes. Following blood collection, the samples were immediately inverted several times and were held on wet ice pending centrifugation. The samples were centrifuged within ˜30 minutes of collection under refrigeration (˜5° C. for ˜10 minutes at ˜2000 g) to obtain plasma. The plasma was frozen immediately on dry ice after separation. The plasma samples were stored at approximately −70° C. until analysis.
Plasma (100 μL) was precipitated with 400 μL of 0.1% formic acid in acetonitrile containing the internal standard (100 ng/mL pneumocandin). The samples were then capped and vortexed for about 30 seconds followed by centrifugation at 14,000 rpm at room temperature for 10 minutes. Following centrifugation 200 μL of supernatant was transferred to plastic autosampler vials containing 200 μL of 0.1% formic acid in water and vortexed. Samples were then analyzed by LCMSMS.
All pharmacokinetic calculations were performed using WinNonlin version 4.1 (Pharsight Corp) by noncompartmental analysis.

Structure (SMILES) | overall performance in reducing C. albicans CFUs in the kidneys of the mice (C. albicans R303) | log reduction at 0.5 mg/kg (C. albicans R303; Fourth run, IP 0.5 mg/kg) | log reduction at 1.5 mg/kg (C. albicans R303; Fourth run, IP 1.5 mg/kg) | Mean log10 CFU/kidneys (±SEM) (C. albicans R303; Fourth run, IP 0.5 mg/kg) [log10 CFU/kidneys] | Mean log10 CFU/kidneys (±SEM) (C. albicans R303; Fourth run, IP 1.5 mg/kg) [log10 CFU/kidneys] | log reduction at 0.5 mg/kg (C. albicans R303; Third run, IP 0.5 mg/kg) | log reduction at 1.5 mg/kg (C. albicans R303; Third run, IP 1.5 mg/kg) | log reduction at 4.5 mg/kg (C. albicans R303; Third run, IP 4.5 mg/kg) | Mean log10 CFU/kidneys (±SEM) (C. albicans R303; Third run, IP 0.5 mg/kg) [log10 CFU/kidneys] | Mean log10 CFU/kidneys (±SEM) (C. albicans R303; Third run, IP 1.5 mg/kg) [log10 CFU/kidneys] | Mean log10 CFU/kidneys (±SEM) (C. albicans R303; Third run, IP 4.5 mg/kg) [log10 CFU/kidneys] | further results
CCCCCOc1ccc(-c2ccc(-c3ccc(C(=O)N[C@H]4C[C@@H](O)C(OCCOCCN)NC(=O)C5[C@@H](O)[C@@H](C)CN5C(=O)C([C@@H](C)O)NC(=O)C([C@H](O)[C@@H](O)c5ccc(O)cc5)NC(=O)C5C[C@@H](O)CN5C(=O)C([C@@H](C)O)NC4=O)cc3)cc2)cc1 (stereo partly shown) [compound 5] | performed strongly |  |  |  |  |  |  |  |  |  |  | log reduction at 0.5 mg/kg (C. albicans R303; Second run, IP 0.5 mg/kg): 1.22; log reduction at 1.5 mg/kg (C. albicans R303; Second run, IP 1.5 mg/kg): 4.15; log reduction at 4.5 mg/kg (C. albicans R303; Second run, IP 4.5 mg/kg): 4.87; Mean log10 CFU/kidneys (±SEM) (C. albicans R303; Second run, IP 0.5 mg/kg): 3.65 ± 0.10 log10 CFU/kidneys; Mean log10 CFU/kidneys (±SEM) (C. albicans R303; Second run, IP 1.5 mg/kg): 0.73 ± 0.42 log10 CFU/kidneys; Mean log10 CFU/kidneys (±SEM) (C. albicans R303; Second run, IP 4.5 mg/kg): 0.00 ± 0.00 log10 CFU/kidneys; Vd ([1]; beagle, in vivo, iv, 1.4 mg/kg): 0.627 ± 0.0139 L/kg; half-life ([1]; beagle, in vivo, iv, 1.4 mg/kg): 33.7 ± 3.28 h
CCCCCOc1ccc(-c2ccc(-c3ccc(C(=O)N[C@H]4C[C@@H](O)C(NCCN)NC(=O)C5[C@@H](O)[C@@H](C)CN5C(=O)C([C@@H](C)O)NC(=O)C([C@H](O)[C@@H](O)c5ccc(O)cc5)NC(=O)C5C[C@@H](O)CC5C(=O)C([C@@H](C)O)NC4=O)cc3)cc2)cc1 (stereo partly shown) [compound 15] | performed strongly | 3.01 | 3.81 | 2.09 ± 0.16 | 1.29 ± 0.18 |  |  |  |  |  |  | log reduction at 0.5 mg/kg (C. albicans R303; Second run, IP 0.5 mg/kg): 3.63; log reduction at 1.5 mg/kg (C. albicans R303; Second run, IP 1.5 mg/kg): 3.91; log reduction at 4.5 mg/kg (C. albicans R303; Second run, IP 4.5 mg/kg): 4.15; Mean log10 CFU/kidneys (±SEM) (C. albicans R303; Second run, IP 0.5 mg/kg): 1.25 ± 0.45 log10 CFU/kidneys; Mean log10 CFU/kidneys (±SEM) (C. albicans R303; Second run, IP 1.5 mg/kg): 0.96 ± 0.57 log10 CFU/kidneys; Mean log10 CFU/kidneys (±SEM) (C. albicans R303; Second run, IP 4.5 mg/kg): 0.73 ± 0.42 log10 CFU/kidneys
CCCCCOc1ccc(-c2ccc(-c3ccc(C(=O)N[C@H]4C[C@@H](O)C(NCCNCCN)NC(=O)C5[C@@H](O)[C@@H](C)CN5C(=O)C([C@@H](C)O)NC(=O)C([C@H](O)[C@@H](O)c5ccc(O)cc5)NC(=O)C5C[C@@H](O)CC5C(=O)C([C@@H](C)O)NC4=O)cc3)cc2)cc1 (stereo partly shown) [compound 17] | performed strongly | 1.64 | 3.91 | 3.46 ± 0.06 | 1.19 ± 0.12 |  |  |  |  |  |  | 
CCCCCOc1ccc(-c2ccc(-c3ccc(C(=O)N[C@H]4C[C@@H](O)C(NCCNCCO)NC(=O)C5[C@@H](O)[C@@H](C)CN5C(=O)C([C@@H](C)O)NC(=O)C([C@H](O)[C@@H](O)c5ccc(O)cc5)NC(=O)C5C[C@@H](O)CC5C(=O)C([C@@H](C)O)NC4=O)cc3)cc2)cc1 (stereo partly shown) [compound 18] | performed strongly | 2.56 | 3.95 | 2.54 ± 0.17 | 1.15 ± 0.09 |  |  |  |  |  |  | CI ([1]; 1.4 mg/kg intravenous slow bolus, mean ± SEM, n = 4 beagle dogs): 0.377 ± 0.018 mL/min/kg; half-life ([1]; plasma, 1.4 mg/kg intravenous slow bolus, mean ± SEM, n = 4 beagle dogs, read-out: T ½ (converted)): 21 ± 1.16 h; Vd ([1]; plasma, 1.4 mg/kg intravenous slow bolus, mean ± SEM, n = 4 beagle dogs, read-out: Vz): 0.687 ± 0.0584 L/kg
CCC(C)CC(C)CCCCCCCCC(=O)N[C@H]1C[C@@H](O)C(NCCOCCOCCN)NC(=O)C2[C@@H](O)CCN2C(=O)C([C@H](O)CCN)NC(=O)C([C@H](O)[C@@H](O)c2ccc(O)cc2)NC(=O)C2C[C@@H](O)CC2C(=O)C([C@@H](C)O)NC1=O (stereo partly shown) [compound 19] | performed strongly |  |  |  |  | 2.19 | 3.47 | 4.03 | 3.01 ± 0.07 | 1.74 ± 0.18 | 1.17 ± 0.40 | 
CCC(C)CC(C)CCCCCCCCC(=O)N[C@H]1C[C@@H](O)C(NCCOCCN)NC(=O)C2[C@@H](O)CCN2C(=O)C([C@H](O)CCN)NC(=O)C([C@H](O)[C@@H](O)c2ccc(O)cc2)NC(=O)C2C[C@@H](O)CC2C(=O)C([C@@H](C)O)NC1=O (stereo partly shown) [compound 20] | performed strongly |  |  |  |  | 3.25 | 4.48 | 3.75 | 1.96 ± 0.18 | 0.73 ± 0.42 | 1.45 ± 0.09 | 
CCC(C)CC(C)CCCCCCCCC(=O)N[C@H]1C[C@@H](O)C(NCCNCCO)NC(=O)C2[C@@H](O)CCN2C(=O)C([C@H](O)CCN)NC(=O)C([C@H](O)[C@@H](O)c2ccc(O)cc2)NC(=O)C2C[C@@H](O)CC2C(=O)C([C@@H](C)O)NC1=O (stereo partly shown) [compound 21] | performed strongly |  |  |  |  | 3.63 | 4.48 | 4.03 | 1.57 ± 0.16 | 0.73 ± 0.42 | 1.17 ± 0.40 | 
CCC(C)CC(C)CCCCCCCCC(=O)N[C@H]1C[C@@H](O)C(NCCNCCN)NC(=O)C2[C@@H](O)CCN2C(=O)C([C@H](O)CCN)NC(=O)C([C@H](O)[C@@H](O)c2ccc(O)cc2)NC(=O)C2C[C@@H](O)CC2C(=O)C([C@@H](C)O)NC1=O (stereo partly shown) [compound 22] | performed strongly |  |  |  |  | 3.56 | 5.2 | 4.55 | 1.65 ± 0.16 | 0.00 ± 0.00 | 0.65 ± 0.38 | 
